Earlier results, collected in patent US20080200404A1, “Novel Antimalarial 9A-Carbamoyl-Aminoalkyl and 9A-Thiocarbamoyl-Aminoalkyl Azalides” (priority 2005, published 2008).

Key:
Plasmodium falciparum = settings: non-immune patients, as compared to controls; cited from earlier work
Plasmodium cynomolgi = settings: rhesus monkey; cited from earlier work
Plasmodium vivax = settings: non-immune patients, as compared to controls; cited from earlier work
Plasmodium berghei = settings: cited from earlier work
[1] = tested on: Plasmodium yoelli nigeriensis; settings: cited from earlier work

| Compound | prophylactic efficacy for Plasmodium falciparum (Plasmodium falciparum) | efficacy in monkey model (Plasmodium cynomolgi) | prophylactic efficacy for Plasmodium vivax (Plasmodium vivax) | activity in mouse model (Plasmodium berghei) | activity in mouse model [1] |
| --- | --- | --- | --- | --- | --- |
| CC[C@H]1OC(=O)[C@H](C)[C@@H](O[C@H]2C[C@@](C)(OC)[C@@H](O)[C@H](C)O2)[C@H](C)[C@@H](O[C@@H]2O[C@H](C)C[C@H](N(C)C)[C@H]2O)[C@](C)(O)C[C@@H](C)CN(C)[C@H](C)[C@@H](O)[C@]1(C)O [azithromycin] | 71.6% | active | 98.9% | – | – |
| midecamycinin | – | no efficacy | – | active | active |
